Assay results reported in patent US20130150430A1, “Methods for Impairing the P53/HDM2 Auto-Regulatory Loop in Multiple Myeloma Development Using mIR-192, mIR-194 and mIR-215” (THE OHIO STATE UNIVERSITY, priority 2011, published 2013).

Experiments:
Type in all cases: cell-based, human
[1] = tested on: NCI-H929 and RPMI-8226 IGF-1 treated cells; assay: Adhesion assay on fibronectin in response to IGF-1; conditions: ectopic expression, vs Scr control
Method: FIG. 21A, FIG. 21B: MM1s and RPMI-8226 cells (pre-miRNA-192, -194, -215, Scr sequence-transfected) at 48 hr after transfection were harvested, treated with calcein and incubated with IGF-1 (50 ng/ml) and their ability to adhere to fibronectin plates was assessed by fluorescence assay. MM1s (FIG. 21A) and RPMI-8226 (FIG. 21B) with ectopic re-expression of miR-192, 215 and also miR-194 lost their ability to respond to IGF-1 treatment compare to Scr sequence.
Before adhesion, MM cell lines were starved overnight in RPMI 1640/0.5% BSA, without loss of viability. Cells (5×10^6/ml) were labeled with calcein-a.m. (Molecular Probes, Eugene, Oreg.) for 30 min at 37° C., washed, and resuspended in adhesion medium (RPMI 1640/10% FBS). Cells were stimulated with or without IGF-1 at 0-200 ng/ml for 20 min and added in triplicate to Fibronectin-coated 48 well plates (BD Biosciences #354506, Bedford, Mass.) at 37° C. for 30 min, and unbound cells were removed by four washes with RPMI1640. The absorbance of each well was measured using 492/520 nm filter set with a fluorescence plate reader (Wallac VICTOR2; Perkin-Elmer, Boston, Mass.).

[2] = tested on: MDM2 mRNA in MM1s and NCI-H929 cells; assay: RT-PCR of MDM2 mRNA after miRNA transfection and Nutlin-3a; conditions: transfected cells at 6 and 12 hr of Nutlin-3a treatment, both cell lines
Method: FIG. 4F: MDM2 mRNA expression normalized for GAPDH mRNA expression in MM1s and NCIH929 cells miRNAs or Scr transfected after Nutlin-3a treatment (6-12 hr).
RNA was isolated from cell lines using Trizol reagent (Invitrogen) as per the manufacturer's protocol. An aliquot of 5 μg RNA was then used for cDNA synthesis using the SuperScript first strand cDNA synthesis kit (Invitrogen). RT-PCRs were carried out using ABI Prism 7900HT sequence detection systems with Applied Biosystems TaqMan Gene expression assays (p21 (CDKN1A):Hs01121172_ml; MYC:Hs99999003_ml; TP53:Hs00153349_ml; MDM2: Hs01066938_ml).

[3] = tested on: NCI-H929 and RPMI-8226 IGF-1 treated cells; assay: Intra-epithelial trans-well migration assay with IGF-1 as attractant; conditions: ectopic expression, vs Scr control
Text: FIG. 7B: Intra-epithelial migration assay in MM cells miRNAs transfected using HS-5 cells at different concentrations of IGF-1 as attractant. Bars indicate relative fold change of migration compared with the control ±SD.
FIG. 21C: Intra-epithelial migration assay in MM1s and RPMI-8226 cells (pre-miRNA-192, -194, -215, Scr-transfected) using HS-27A stromal cell as cellular layer at different concentrations of IGF-1 as attractant. Bars indicate relative fold change of migration compared with the control. All experiments were performed in triplicate.
To this end, the inventors used intra-epithelial trans-well migration assay with IGF-1 at various concentrations as attractant and two bone marrow-derived stromal cells, HS-5 (fibroblast-like) and HS-27A (epithelial-like) as cell layer.
IGF-I-induced MM transendothelial migration was determined using 24 well, 6.5 mm internal diameter transwell cluster plates with polycarbonate membranes ([…] pore size) separating the 2 chambers (Corning Costar, Cambridge, Mass.). Bone marrow stromal cell lines HS-5 and HS-27A were grown on the insert for 24 hrs to produce a confluent monolayer. […] At the end of the incubation period, cells migrating through endothelial or bone marrow stromal cell layers into the lower chamber were harvested, stained with trypan blue, and counted under a microscope.

[4] = tested on: RPMI-8226 cells expressing mutant TP53; assay: MTS cell viability assay after miRNA transfection; conditions: transfected RPMI-8226 cells
Text: (§1) FIG. 3A, FIG. 3B, FIG. 3C, FIG. 3D: MTS assay performed in MM1s (FIG. 3A), NCI-929 (FIG. 3B), KMS28BM (FIG. 3C) and RPMI-8226 (FIG. 3D) cell lines. Cells were transfected with miR-192, miR-215 and scrambled sequence (Scr) and were harvested at 24, 48, and 72 hrs after transfection. P values are indicated.
(§2) CD-138+ PCs obtained from new diagnosed MM subjects and isolated as previously described were transfected by using nucleoporation (LONZA) Cell Line Nucleofector Kit V (Cat#VCA-1003). MM1s, NCI-H929 cell lines were transfected by using nucleoporation (LONZA) Cell Line Nucleofector Kit V (Cat#VCA-1003). Instead for U266, KMS-28BM and RPMI-8226 Cell Line Nucleofector Kit C (Cat#VCA-1004) was used. Specifically for primary cells 1×10^6 CD-138+ PCs were resuspended in […] of V solution and 100 nM miRNA precursors (Ambion) was used for the transfection reaction. For MM cell lines 5×10^6 cells were re-suspended in 100 μl of nucleofector solution V/C and 100 nM of miRNAs precursor or 100 nM LNA miRNA antisense oligonucleotides (Ambion) was used for each transfection point. Protein lysates and total RNA were collected at the time indicated. miRNA processing and expression were verified by northern blot and stem-loop qRT-PCR.
(§3) Cells were plated in 96-well plates in triplicate and incubated at 37° C. in a 5% CO2 incubator. Cell viability was examined with 3-(4,5-dimethylthiazol-2-yl)-2,5-dipheniltetrazolium bromide (MTT)-Cell Titer 96AQueous One Solution Cell Proliferation Assay (Promega), according to the manufacturer's protocol. Metabolically active cells were detected by adding 20 μl of MTT to each well. After 1 hr incubation, the plates were analyzed in a Multi label Counter (Bio-Rad Laboratories). Apoptosis was assessed using Annexin V-FITC apoptosis detection kits followed by flow cytometric analysis. For Annexin V staining, MM cells (pre-miRNAs pool or Scrambled transfected) were treated with MI-219 at different concentrations (0, 2.5, 5.0, 10 μM) for 24 hr and then treated as for DNA content analysis, except that fixation was omitted and the Cells (5×10^5 per sample) were resuspended in PBS containing 25 μg/ml Annexin-V-FLUOS (Roche Applied Science) and 50 μg/ml PI prior to FACS analysis. The percentage of apoptosis indicated was corrected for background levels found in the corresponding untreated controls. The percentage of apoptotic cells was expressed as the mean±SD of three experiments.

[5] = tested on: MM cells carrying WT TP53 (MM1s, NCI-H929, KMS28BM); assay: MTS cell viability assay after miRNA transfection; conditions: transfected cells vs scrambled sequences, 24, 48, 72 hrs after transfection
Text: as §1, §2, §3

Substance | cell adhesion [1] | MDM2 mRNA levels [2] | migration and tissue invasion [3] | growth arrest (MTS assay) [4] | growth arrest (MTS assay) [5]
miR-215: microRNA, p53-activated, down-regulated in MM; transfected as miRNA precursor (Ambion) or lentivector; SEQ ID NO:58 (AUGACCUAUGAAUUGACAGAC; listed as RNA, chemistry not given here; listed as Homo sapiens) | significant decrease | strongly reduced | significant decrease | did not detect this effect | significant growth arrest
miR-192: microRNA, p53-activated, down-regulated in MM; transfected as miRNA precursor (Ambion) or lentivector; SEQ ID NO:56 (CUGACCUAUGAAUUGACAGCC; listed as RNA, chemistry not given here; listed as Homo sapiens) | significant decrease | strongly reduced | significant decrease | did not detect this effect | significant growth arrest
